Results reported in patent publication EP0305086A2, “Antibiotic A80577 and process for its production” (ELI LILLY AND COMPANY, priority 1987, dated 1989).

System: Actinomadura verrucosospora A80577
Test: Resistance of the producing culture to antibiotic sensitivity discs on seeded ISP No. 2 agar plates
Assay type: cell-based
Conditions: culture A80577 on ISP No. 2 agar
Protocol: Resistance to antibiotics was measured by padding antibiotic sensitivity discs onto the surface of seeded ISP No. 2 agar plates.
A80577 was resistant to: bacitracin 10 units, cephalothin 30 µg, lincomycin 2 µg, oleandomycin 15 µg, penicillin G 10 units, rifampin 5 µg, and tetracycline 30 µg. It was sensitive to: gentamicin 10 µg, neomycin 30 µg, streptomycin 10 µg, tobramycin 10 µg and vancomycin 30 µg.

Question: Which “Resistance to antibiotics (sensitivity disc)” value (shortened to “Resistance to antibiotics”) (disc 15 µg) does the source give for CO[C@H]1C[C@H](O[C@H]2[C@H](C)[C@@H](O[C@@H]3O[C@H](C)C[C@H](N(C)C)[C@H]3O)[C@@H](C)C[C@@]3(CO3)C(=O)[C@H](C)[C@@H](O)[C@@H](C)[C@@H](C)OC(=O)[C@@H]2C)O[C@@H](C)[C@@H]1O [oleandomycin] here?
Answer: The value was “resistant”.

Question: For gentamicin, which “Resistance to antibiotics” value (disc 10 µg) is on record?
Answer: The value was “sensitive”.

Question: Which “Resistance to antibiotics” value (disc 10 units) does the source give for CC1(C)S[C@@H]2[C@H](NC(=O)Cc3ccccc3)C(=O)N2[C@H]1C(=O)O [penicillin G] here?
Answer: Its value is “resistant”.

Question: neomycin was tested. Which “Resistance to antibiotics” value (disc 30 µg) did it give?
Answer: Its value is “sensitive”.

Question: With CCC[C@@H]1C[C@@H](C(=O)N[C@@H]([C@H]2O[C@H](SC)[C@H](O)[C@@H](O)[C@H]2O)[C@@H](C)O)N(C)C1 [lincomycin] as the compound, how does the “Resistance to antibiotics” value (disc 2 µg) read?
Answer: The value was “resistant”.

Question: How did the “Resistance to antibiotics” value (disc 30 µg) turn out when CC(=O)OCC1=C(C(=O)O)N2C(=O)[C@@H](NC(=O)Cc3cccs3)[C@H]2SC1 [cephalothin] was run?
Answer: Its value is “resistant”.

Question: Which “Resistance to antibiotics” value (disc 30 µg) does the source give for CN[C@H](CC(C)C)C(=O)N[C@H]1C(=O)N[C@@H](CC(N)=O)C(=O)N[C@H]2C(=O)N[C@H]3C(=O)N[C@H](C(=O)N[C@H](C(=O)O)c4cc(O)cc(O)c4-c4cc3ccc4O)[C@H](O)c3ccc(c(Cl)c3)Oc3cc2cc(c3O[C@@H]2O[C@H](CO)[C@@H](O)[C@H](O)[C@H]2O[C@H]2C[C@](C)(N)[C@H](O)[C@H](C)O2)Oc2ccc(cc2Cl)[C@H]1O [vancomycin] here?
Answer: Its value is “sensitive”.

Question: How did the “Resistance to antibiotics” value (disc 10 µg) turn out when [H]/N=C(/N)N[C@H]1[C@H](O)[C@@H](O)[C@H](O[C@@H]2O[C@@H](C)[C@](O)(C=O)[C@H]2O[C@@H]2O[C@@H](CO)[C@H](O)[C@@H](O)[C@@H]2NC)[C@@H](N/C(N)=N\[H])[C@@H]1O [streptomycin] was run?
Answer: The value was “sensitive”.

Question: How did the “Resistance to antibiotics” value (disc 5 µg) turn out when CO[C@H]1/C=C/O[C@@]2(C)Oc3c(C)c(O)c4c(O)c(c(/C=N/N5CCN(C)CC5)c(O)c4c3C2=O)NC(=O)/C(C)=C\C=C\[C@H](C)[C@H](O)[C@@H](C)[C@@H](O)[C@@H](C)[C@H](OC(C)=O)[C@@H]1C [rifampin] was run?
Answer: The value was “resistant”.

Question: Which “Resistance to antibiotics” value (disc 10 µg) does the source give for NC[C@H]1O[C@H](O[C@H]2[C@H](O)[C@@H](O[C@H]3O[C@H](CO)[C@@H](O)[C@H](N)[C@H]3O)[C@H](N)C[C@@H]2N)[C@H](N)C[C@@H]1O [tobramycin] here?
Answer: The value was “sensitive”.

Question: bacitracin was tested. Which “Resistance to antibiotics” value (disc 10 units) did it give?
Answer: The value was “resistant”.
